“Also recorded” adds a separate entry of the source. Like-named read-outs stand apart in the source and are kept apart here.
How the values were obtained:
SH-SY5Y cells [1] = assay: Cell membrane integrity (LDH release) on SH-SY5Y; assay type: cell-based, human; details: 4 h exposure, 12.5–200 µM
Description: (§1) Human neuroblastoma SH-SY5Y (ECACC 94030304) and human hepatocyte carcinoma HepG2 (ECACC 85011430) were used to evaluate in vitro dose- and time-dependent different cell effects. The SH-SY5Y cell line was selected as it represents a well-established model for studying neuronal cells, while HepG2 hepatocytes represent a liver model as a major organ participating in the metabolism of diverse compounds [31, 61, 62]. SH-SY5Y cells were grown in DMEM F12 (Sigma-Aldrich, St. Louis, MO, USA) supplemented with 15% (v/v) fetal bovine serum (FBS), 2 mM glutamine, and 1% (v/v) non-essential amino acids (NEAA). HepG2 cells were grown in EMEM supplemented with 10% (v/v) FBS, 2 mM glutamine, and 1% (v/v) non-essential amino acids NEAA. All media and supplements were purchased from Sigma-Aldrich, Steinheim, Germany.
(§2) Cell membrane integrity was determined after 4 h exposure to derivatives 3–5 and 10–12 by measuring the release of the intracellular lactate dehydrogenase (LDH), and the procedure followed a previously described protocol using The CytoTox-ONE™ Homogeneous Membrane Integrity Assay (Promega, Madison, WI, USA). Triton X-100 at a final concentration of 0.18% (v/v) (stock of 9% in water; Sigma-Aldrich, Steinheim, Germany) was used as a positive control to determine the maximal LDH release. Data were taken from at least two independent experiments (each treatment performed in duplicate) and plotted as a percentage of LDH release compared to the determined maximal LDH release, according to the manufacturer’s calculation protocol.

SH-SY5Y cells [2] = assay: Mitochondrial membrane potential (TMRE assay) on SH-SY5Y; assay type: cell-based, human; details: 4 h exposure, LOAEL concentrations
Description: as §1
(§3) Mitochondrial membrane potential (ΔΨm) was determined using a cell-permeable, potential-sensitive cationic dye, tetramethylrhodamine ethyl ester perchlorate (TMRE, Cell Signaling Technology Europe, Leiden, The Netherlands). Cells were exposed for 4 h to derivatives 3–5 and 10–12. The procedure followed a previously described protocol. A concentration of 50 µM carbonyl cyanide 3-chlorophenylhydrazone (CCCP, Cell Signaling Technology Europe, Leiden, The Netherlands) was used as a positive control. Data were evaluated from at least three independent experiments (performed in duplicate) and presented as a normalized signal to the untreated control, according to the manufacturer’s calculation protocol.

human AChE = target: T1, human AChE (Homo sapiens, UniProt P22303); assay: Reversible inhibition of AChE (Ellman's procedure, Hunter–Downs evaluation); assay type: biochemical; details: for Ki: Ki ± standard error, 0.1, 0.2, 0.35 and 0.5 mM substrate ATCh, 25 °C, pH 7.4; for Ki (AChE)/Ki (BChE): selectivity ratio
T1 construct: The sources of human AChE and BChE were native erythrocytes and plasma, respectively; from tissue; host or cells: human erythrocytes from venous blood of a healthy volunteer
T1 sequence (P22303 32-617 isoform P22303-2 limits assumed): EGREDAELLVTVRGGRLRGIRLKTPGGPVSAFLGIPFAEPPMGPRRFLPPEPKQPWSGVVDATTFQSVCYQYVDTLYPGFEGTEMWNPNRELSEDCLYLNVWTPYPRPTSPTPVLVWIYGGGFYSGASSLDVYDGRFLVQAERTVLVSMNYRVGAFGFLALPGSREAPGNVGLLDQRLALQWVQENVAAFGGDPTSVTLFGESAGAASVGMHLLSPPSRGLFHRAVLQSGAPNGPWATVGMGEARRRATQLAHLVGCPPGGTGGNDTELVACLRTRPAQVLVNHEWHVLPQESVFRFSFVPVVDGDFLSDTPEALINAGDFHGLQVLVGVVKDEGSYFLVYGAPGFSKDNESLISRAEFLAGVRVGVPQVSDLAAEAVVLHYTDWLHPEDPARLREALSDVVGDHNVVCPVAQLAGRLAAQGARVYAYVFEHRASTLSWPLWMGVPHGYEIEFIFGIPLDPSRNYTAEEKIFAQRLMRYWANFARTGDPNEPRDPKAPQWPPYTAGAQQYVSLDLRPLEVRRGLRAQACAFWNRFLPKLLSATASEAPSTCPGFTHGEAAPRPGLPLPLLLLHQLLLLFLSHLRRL
From the text: (§4) Cholinesterase substrate acetylthiocholine (ATCh) and the thiol reagent 5,5′-dithiobis(2-nitrobenzoic acid) (DTNB) for the enzyme activity measurement were purchased from Sigma-Aldrich (St. Louis, MO, USA). The sources of human AChE and BChE were native erythrocytes and plasma, respectively, obtained from the blood of a healthy volunteer and in accordance with the approval of the Ethics Committee of the Institute for Medical Research and Occupational Health (approval number: 100-21/23-6). Erythrocytes and plasma were isolated from the whole blood and prepared according to a previously published procedure. Namely, venous blood was collected into a heparinized tube and centrifuged (at 4 °C, 20 min on 2500 rpm, Eppendorf centrifuge 5702R) to separate plasma from the erythrocytes. Plasma was removed and used as a source of BChE, while erythrocytes were washed twice with the 0.1 M sodium phosphate buffer, pH 7.4, in a volume corresponding to the initial volume of the whole blood. Both plasma and erythrocytes were frozen at −20 °C until use. Quinuclidine compounds were dissolved in dH2O as 10 or 100 mM; exceptionally, 3-hydroxyimino compounds with longer chains (C12−C16) were dissolved in DMSO as 100 mM solutions. Stock solutions were kept at 4 °C until use. Further dilutions were made in distilled water.
(§5) The reversible inhibition experiments followed a previously published procedure. Namely, the enzyme activity was measured in the presence of a wide range of quinuclidine compound concentrations and in the substrate range from 0.1 to 0.5 mM to confirm the type of compound binding. The activity was assayed following the Ellman’s procedure, with the modification in the wavelength used for detection of the TNB anion in the case of AChE activity measurement due to the interference of the hemoglobin, and according to Worek et al.. The assay was performed in 96-well plates on an Infinite M200PRO plate reader (Tecan Austria GmbH, Salzburg, Austria) at 25 °C. Each concentration was tested in triplicate or quadruplicate on each plate. The inhibition mixture contained 0.1 M sodium phosphate buffer, pH 7.4, enzyme (AChE or BChE), quinuclidine compound (0.2–400 μM final), DTNB (0.3 mM final), and ATCh (from 0.1 to 0.5 mM final) to start the reaction. The increase in absorbance was read at 436 nm for AChE and at 412 nm for BChE. The measured activity in the presence of compounds was corrected for the non-enzymatic hydrolysis of substrate ATCh, if detected. The reversible enzyme–quinuclidine complex dissociation constants (the inhibition constants) Ki were evaluated from the effect of the substrate concentration on the degree of inhibition according to the Hunter–Downs equation as described previously, taking into account only quinuclidine concentrations where 20–80% inhibition of the activity was observed.

HepG2 cells [3] = assay: Cell membrane integrity (LDH release) on HepG2; assay type: cell-based, human; details: HepG2, 4 h exposure, 12.5–200 µM
Description: as §1, §2

HepG2 cells [4] = assay: Mitochondrial membrane potential (TMRE assay) on HepG2; assay type: cell-based, human; details: HepG2, 4 h exposure, LOAEL concentrations
Description: as §1, §3

SH-SY5Y cells [5] = assay: Cytotoxicity assay (MTS) on SH-SY5Y; assay type: cell-based; details: Homo sapiens
Description: (§6) SH-SY5Y cells were grown in DMEM F12 (Sigma-Aldrich, St. Louis, MO, USA) supplemented with 15% (v/v) fetal bovine serum (FBS), 2 mM glutamine, and 1% (v/v) non-essential amino acids (NEAA). HepG2 cells were grown in EMEM supplemented with 10% (v/v) FBS, 2 mM glutamine, and 1% (v/v) non-essential amino acids NEAA. All media and supplements were purchased from Sigma-Aldrich, Steinheim, Germany.
(§7) The procedure followed a previously described protocol.

HepG2 cells [6] = assay: Cytotoxicity assay (MTS) on HepG2; assay type: cell-based; details: Homo sapiens
Description: as §6, §7

human BChE = target: T2, human BChE (Homo sapiens, UniProt P06276); assay: biochemical; details: Ki ± standard error; 0.1, 0.2, 0.35 and 0.5 mM substrate ATCh; 25 °C, pH 7.4; read-out: Ki BChE
T2 construct: Plasma was removed and used as a source of BChE; from tissue; host or cells: human blood plasma from a healthy volunteer
T2 sequence (P06276 29-602): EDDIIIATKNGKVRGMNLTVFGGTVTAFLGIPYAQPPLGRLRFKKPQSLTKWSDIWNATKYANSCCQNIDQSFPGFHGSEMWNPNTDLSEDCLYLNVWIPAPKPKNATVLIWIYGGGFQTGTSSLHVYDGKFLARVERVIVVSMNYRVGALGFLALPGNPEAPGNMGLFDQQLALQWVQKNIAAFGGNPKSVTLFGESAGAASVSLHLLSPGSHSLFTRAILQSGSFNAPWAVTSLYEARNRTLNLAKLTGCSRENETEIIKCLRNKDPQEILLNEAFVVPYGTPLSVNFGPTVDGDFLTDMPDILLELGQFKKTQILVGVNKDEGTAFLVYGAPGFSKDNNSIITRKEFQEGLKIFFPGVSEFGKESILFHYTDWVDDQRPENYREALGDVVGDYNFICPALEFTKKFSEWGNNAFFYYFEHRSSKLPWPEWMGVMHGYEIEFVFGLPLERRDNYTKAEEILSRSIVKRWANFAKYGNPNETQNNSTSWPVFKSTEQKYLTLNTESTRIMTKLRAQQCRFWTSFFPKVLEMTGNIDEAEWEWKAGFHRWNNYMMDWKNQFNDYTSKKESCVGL
From the text: as §4, §5

caspase 8 = assay: Caspase 8 activity in SH-SY5Y (multiplex activity assay kit); assay type: cell-based, human; details: 4 h treatment, LOAEL concentrations
Description: as §6
Caspases (cysteine-aspartic proteases) caspase 3, caspase 8, and caspase 9 were simultaneously analyzed in cells using specific substrate and fluorogenic indicators from the Caspase-3, Caspase-8, and Caspase-9 Multiplex Activity Assay Kit (Abcam, Cambridge, UK). […] The procedure followed a previously described protocol. […] Data were evaluated from at least three independent experiments (performed in duplicate or triplicate), according to the manufacturer’s assay kit calculation protocol, and presented as a normalized signal to the untreated control.

SH-SY5Y cells [7] = details: cited from earlier work
[8] = 4 h exposure, read-out: IC50 ± SE SH-SY5Y 4 h
[9] = 24 h exposure, read-out: IC50 ± SE SH-SY5Y 24 h
[10] = read-out: IC50 ± SE SH-SY5Y 1 h, 1 h exposure
[11] = HepG2, read-out: IC50 ± SE HepG2 1 h, 1 h exposure
[12] = HepG2, 4 h exposure, read-out: IC50 ± SE HepG2 4 h
[13] = HepG2, 24 h exposure, read-out: IC50 ± SE HepG2 24 h

| Compound | LDH release (SH-SY5Y cells [1]) | Mitochondrial membrane potential (ΔΨm) (SH-SY5Y cells [2]) | Ki (human AChE) | Ki (AChE)/Ki (BChE) (human AChE) | LDH release (HepG2 cells [3]) | Mitochondrial membrane potential (ΔΨm) (HepG2 cells [4]) | IC50 (SH-SY5Y cells [5]; [8]) | IC50 (SH-SY5Y cells [5]; [9]) | IC50 (SH-SY5Y cells [5]; [10]) | IC50 (HepG2 cells [6]; [11]) | IC50 (HepG2 cells [6]; [12]) | IC50 (HepG2 cells [6]; [13]) | Ki (human BChE) | Caspase 8 activation (caspase 8) | IC50 (SH-SY5Y cells [7]; [9]) | IC50 (SH-SY5Y cells [7]; 24 h exposure, controls, read-out: IC50 ± SE SH-SY5Y 24 h) | IC50 (SH-SY5Y cells [7]; read-out: IC50 ± SE SH-SY5Y 1 h, 1 h exposure, controls) |
| --- | --- | --- | --- | --- | --- | --- | --- | --- | --- | --- | --- | --- | --- | --- | --- | --- | --- |
| CCCCCCCCCCCCCC[N+]12CCC(CC1)C(O)C2 (stereo not shown) [Compound 4] | significant LDH release | decrease in the mitochondrial membrane potential | 4.2 ± 0.5 µM | 0.5 | strongest effect; also recorded: significant LDH release | decrease in the mitochondrial membrane potential | 9 ± 1 µM | 7 ± 1 µM | 16 ± 1 µM | 35 ± 1 µM | 32 ± 1 µM | 43 ± 1 µM | 7.9 ± 0.7 µM |  |  |  |  |
| CCCCCCCCCCCCCCCC[N+]12CCC(CC1)C(O)C2 (stereo not shown) [Compound 5] | significant LDH release | decrease in the mitochondrial membrane potential | 9 ± 1.3 µM | 0.3 | strongest effect; also recorded: significant LDH release | strongest effect; also recorded: decrease in the mitochondrial membrane potential | 8 ± 1 µM | 7 ± 1 µM | 11 ± 1 µM | 46 ± 1 µM | 26 ± 1 µM | 28 ± 1 µM | 26.1 ± 2.4 µM |  |  |  |  |
| CCCCCCCCCCCC[N+]12CCC(CC1)/C(=N\O)C2 [Compound 10] | strongest effect; also recorded: significant LDH release | decrease in the mitochondrial membrane potential | 14.3 ± 1.8 µM | 2.6 | significant LDH release | decrease in the mitochondrial membrane potential | 174 ± 1 µM |  | 208 ± 3 µM | 218 ± 1 µM | 81 ± 1 µM | 15 ± 1 µM | 5.4 ± 0.8 µM | significant activation | 147 ± 1 µM |  |  |
| CCCCCCCCCCCCCC[N+]12CCC(CC1)/C(=N\O)C2 [Compound 11] | strongest effect; also recorded: significant LDH release | decrease in the mitochondrial membrane potential | 7 ± 0.9 µM | 0.8 | significant LDH release | decrease in the mitochondrial membrane potential | 83 ± 3 µM | 60 ± 1 µM | 125 ± 2 µM | 37 ± 1 µM | 18 ± 1 µM | 11 ± 1 µM | 8.8 ± 1 µM | significant activation |  |  |  |
| CCCCCCCCCCCCCCCC[N+]12CCC(CC1)/C(=N\O)C2 [Compound 12] | strongest effect; also recorded: significant LDH release | decrease in the mitochondrial membrane potential | 19 ± 1.6 µM | 0.4 | significant LDH release | decrease in the mitochondrial membrane potential | 78 ± 1 µM | 54 ± 1 µM | 89 ± 1 µM | 40 ± 1 µM | 20 ± 1 µM | 7 ± 1 µM | 48.6 ± 3.8 µM | significant activation |  |  |  |
| CN[C@@H]1C[C@H]2O[C@@](C)([C@@H]1OC)n1c3ccccc3c3c4c(c5c6ccccc6n2c5c31)C(=O)NC4 [SS, staurosporine] |  |  |  |  |  |  |  |  |  |  |  |  |  |  |  | 0.12 ± 0.01 µM | ≥ 4 µM |
